Values of other authors in US20060052354A1, “Methods for treating migraine” (Corcept Therapeutics, Inc., priority 2002, published 2006).

How the values were obtained:
[1] = in one study (Kawai)
progesterone receptor = molecular target: T1, progesterone receptor (Homo sapiens, UniProt P06401)
T1 sequence (P06401 1-933): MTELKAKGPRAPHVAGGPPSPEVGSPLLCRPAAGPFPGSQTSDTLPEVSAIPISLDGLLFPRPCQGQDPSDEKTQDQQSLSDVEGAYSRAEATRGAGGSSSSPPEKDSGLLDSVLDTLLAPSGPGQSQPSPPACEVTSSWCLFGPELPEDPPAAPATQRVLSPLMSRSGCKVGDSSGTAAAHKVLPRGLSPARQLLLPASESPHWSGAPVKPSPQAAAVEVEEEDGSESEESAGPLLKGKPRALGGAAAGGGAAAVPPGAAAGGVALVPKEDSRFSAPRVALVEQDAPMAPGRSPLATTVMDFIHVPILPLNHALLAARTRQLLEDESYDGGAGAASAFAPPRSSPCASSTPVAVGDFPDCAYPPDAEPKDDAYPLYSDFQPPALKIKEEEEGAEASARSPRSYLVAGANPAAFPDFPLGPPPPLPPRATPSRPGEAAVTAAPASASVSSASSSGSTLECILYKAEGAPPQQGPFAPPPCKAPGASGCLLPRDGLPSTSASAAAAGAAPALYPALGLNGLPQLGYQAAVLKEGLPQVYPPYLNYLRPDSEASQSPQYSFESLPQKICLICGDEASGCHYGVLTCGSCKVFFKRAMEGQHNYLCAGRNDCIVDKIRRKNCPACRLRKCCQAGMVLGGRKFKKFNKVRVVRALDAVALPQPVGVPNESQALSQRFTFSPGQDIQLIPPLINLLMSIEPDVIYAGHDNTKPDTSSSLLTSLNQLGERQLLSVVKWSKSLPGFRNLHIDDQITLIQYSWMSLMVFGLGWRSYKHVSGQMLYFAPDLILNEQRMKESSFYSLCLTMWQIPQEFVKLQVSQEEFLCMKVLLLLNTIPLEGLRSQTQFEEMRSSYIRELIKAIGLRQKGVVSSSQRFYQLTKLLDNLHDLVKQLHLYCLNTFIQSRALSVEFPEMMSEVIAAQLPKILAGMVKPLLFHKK

[2] = molecular target: T2, glucocorticoid (GR) receptors (Homo sapiens, UniProt P04150)
T2 sequence (P04150 1-777): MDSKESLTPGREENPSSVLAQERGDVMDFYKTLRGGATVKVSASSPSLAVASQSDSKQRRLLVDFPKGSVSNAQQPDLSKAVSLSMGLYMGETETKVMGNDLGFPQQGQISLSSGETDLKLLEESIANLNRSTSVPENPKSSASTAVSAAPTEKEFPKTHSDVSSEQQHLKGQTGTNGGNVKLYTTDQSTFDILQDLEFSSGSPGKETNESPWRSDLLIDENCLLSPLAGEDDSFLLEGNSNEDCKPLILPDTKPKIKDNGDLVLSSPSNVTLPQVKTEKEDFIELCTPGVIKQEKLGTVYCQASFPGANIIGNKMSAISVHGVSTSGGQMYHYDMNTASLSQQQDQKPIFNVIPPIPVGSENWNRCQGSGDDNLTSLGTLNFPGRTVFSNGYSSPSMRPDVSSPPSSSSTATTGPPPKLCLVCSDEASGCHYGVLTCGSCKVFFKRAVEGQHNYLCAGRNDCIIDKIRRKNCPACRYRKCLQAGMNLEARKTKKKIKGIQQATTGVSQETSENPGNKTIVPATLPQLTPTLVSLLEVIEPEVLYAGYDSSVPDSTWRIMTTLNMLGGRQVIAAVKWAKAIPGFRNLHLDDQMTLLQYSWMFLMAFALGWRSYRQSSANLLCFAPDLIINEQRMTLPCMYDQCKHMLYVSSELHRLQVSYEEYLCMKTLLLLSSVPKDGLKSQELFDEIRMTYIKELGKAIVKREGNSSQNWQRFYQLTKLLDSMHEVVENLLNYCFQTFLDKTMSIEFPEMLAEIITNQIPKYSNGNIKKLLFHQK

[3] = molecular target: T3, Mineralocorticoid receptors (MRs) (Homo sapiens, UniProt P08235); details: MR versus GR
T3 sequence (P08235 1-984): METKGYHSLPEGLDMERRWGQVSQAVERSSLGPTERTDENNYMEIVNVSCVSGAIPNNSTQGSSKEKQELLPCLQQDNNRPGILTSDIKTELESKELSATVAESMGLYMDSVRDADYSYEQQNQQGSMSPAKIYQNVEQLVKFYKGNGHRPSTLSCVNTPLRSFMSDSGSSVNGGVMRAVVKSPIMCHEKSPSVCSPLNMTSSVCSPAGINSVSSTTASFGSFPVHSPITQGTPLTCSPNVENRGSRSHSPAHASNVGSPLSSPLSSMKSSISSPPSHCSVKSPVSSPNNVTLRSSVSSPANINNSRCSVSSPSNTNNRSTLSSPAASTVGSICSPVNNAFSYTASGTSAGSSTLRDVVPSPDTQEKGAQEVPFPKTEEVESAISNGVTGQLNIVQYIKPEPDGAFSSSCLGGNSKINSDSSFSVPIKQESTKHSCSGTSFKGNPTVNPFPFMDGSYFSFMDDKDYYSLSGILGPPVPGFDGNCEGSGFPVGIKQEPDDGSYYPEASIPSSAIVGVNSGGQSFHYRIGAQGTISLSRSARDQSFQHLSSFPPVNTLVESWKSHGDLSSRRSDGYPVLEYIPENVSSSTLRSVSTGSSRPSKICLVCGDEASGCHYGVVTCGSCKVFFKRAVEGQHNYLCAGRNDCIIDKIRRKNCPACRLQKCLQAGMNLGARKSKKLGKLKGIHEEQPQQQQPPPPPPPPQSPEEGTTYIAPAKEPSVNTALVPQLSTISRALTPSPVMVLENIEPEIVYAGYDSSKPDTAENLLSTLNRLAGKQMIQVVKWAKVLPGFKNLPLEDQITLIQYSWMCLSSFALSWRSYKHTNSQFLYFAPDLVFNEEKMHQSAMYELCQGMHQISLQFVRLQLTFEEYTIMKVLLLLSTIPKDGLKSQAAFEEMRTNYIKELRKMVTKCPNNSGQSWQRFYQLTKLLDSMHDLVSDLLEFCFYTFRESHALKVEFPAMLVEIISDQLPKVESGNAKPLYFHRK

Q: With CC#C[C@]1(O)CC[C@H]2[C@@H]3CCC4=CC(=O)CCC4=C3[C@@H](c3ccc(N(C)C)cc3)C[C@@]21C [Mifepristone, (11β,17β) 11 [4 (dimethylamino)phenyl]-17 hydroxy-17 (1 propynyl)estra-4,9 dien-3 one] as the molecule, how does the “daily dose excreted in the urine” value [1] read?
A: less than 0.5%

Q: What about the “antagonist of the progesterone receptor” value (progesterone receptor) of the same molecule?
A: powerful antagonist

Q: And the “antagonist of the glucocorticoid (GR) receptor” value [2]?
A: powerful antagonist

Q: With CC#C[C@]1(O)CC[C@H]2[C@@H]3CCC4=CC(=O)CCC4=C3[C@@H](c3ccc(OCCN(C)C)cc3)C[C@@]21C [RU009, 11β-(4-dimethylaminoethoxyphenyl)-17α-propynyl-17β-hydroxy-4,9-estradien-3-one] as the molecule, how does the “antagonist of the glucocorticoid (GR) receptor” value [2] read?
A: GR antagonist effects

Q: For C[C@]12CCC(=O)C=C1CC[C@@H]1[C@@H]2[C@@H](O)C[C@@]2(C)[C@H]1CC[C@]2(O)C(=O)CO [cortisol], which “affinity of MRs for cortisol relative to GRs for glucocorticoids” value [3] is on record?
A: ten-fold
